How the values were obtained:
[1] = system: TgSABP1-6′SL-PAA interaction; experiment: Competitive BLI assay of TgSABP1-6′SL-PAA interaction; format: binding, Toxoplasma gondii; settings: 5 μM TgSABP1; for Inhibition of binding of recombinant TgSABP1 to 6′SL-PAA: SA 5, 10, 20 mM, lactose 25, 50, 100 mM, oseltamivir phosphate 30, 60 mM
Procedure: To evaluate small molecule-mediated inhibition of TgSABP1-6′SL-PAA interaction, streptavidin biosensors pre-loaded with 2.4 μM 6′SL-PAA until saturation (threshold ≥ 1.5 nm shift) were subjected to competitive binding assays on an Octet K2 system. Four test compounds were diluted to different concentrations in PBST-BSA, including SA (5, 10, and 20 mM), lactose (25, 50, and 100 mM), oseltamivir phosphate (30 and 60 mM), and eltrombopag (5 and 50 μM). The His-tagged TgSABP1 protein was diluted to 5 μM with different concentrations of compounds and incubated for 15 min at room temperature. The competition binding test included equilibration for 90 s in the compound solution, association for 60–180 s in the pre-treated protein solution, dissociation for 60–90 s in the compound solution, and regeneration [3 × 20 s pulses in HCl (pH 1.0) followed by PBS neutralization]. Data parameters were analyzed by ForteBio Data Analysis software (v 9.0.0.14) using the average reference sensors’ subtraction method and 1:1 binding model. All experiments were repeated in triplicate.

[2] = system: T. gondii RH-RFP tachyzoites; experiment: Intra-vacuolar proliferation (parasites per vacuole); format: cell-based, Toxoplasma gondii
Procedure: (§1) The anti-invasive activity of eltrombopag against T. gondii was assessed using a fluorescence-based invasion assay with modifications to the established protocols. Toxoplasma gondii RH strains stably expressing red fluorescence protein were added to 2 × 10^5 Vero cells (multiplicity of infection [MOI] of 1:1) pre-treated with the drug or the equivalent volume of DMSO for 1 h. One hour after the parasites were added, the parasites were removed and the cells were gently washed with PBS three times, then incubated with DMEM containing 2% FBS. After 16 h of cultivation, the cells were fixed with 4% PFA and stained with DAPI (Beyotime, Shanghai, China). The numbers of parasitophorous vacuoles (PVs) and host cells were counted in a total of 20 randomly selected fields under a fluorescence microscope (Leica DM4B, Wetzlar, Germany). Invasion efficiency = (number of PVs/number of DAPI^+ cells) × 100%. Meanwhile, the number of parasites in each vacuole was determined. Seventy vacuoles from each coverslip were counted across at least three biological replicates. Intra-vacuolar proliferation was expressed as the mean number of parasites per PV.

[3] = system: T. gondii; experiment: Anti-parasite activity in vivo
[4] = system: T. gondii RH-RFP tachyzoites; experiment: T. gondii host cell invasion assay in Vero cells; format: cell-based; settings: Toxoplasma gondii
Procedure: as §1

## OC[C@H]1O[C@@H](O[C@H]2[C@H](O)[C@@H](O)C(O)O[C@@H]2CO)[C@H](O)[C@@H](O)[C@H]1O (mixture of isomers) [lactose]
[1]
  Inhibition of binding of recombinant TgSABP1 to 6′SL-PAA: did not

## CCOC(=O)C1=C[C@@H](OC(CC)CC)[C@H](NC(C)=O)[C@@H](N)C1 [oseltamivir phosphate]
[1]
  Inhibition of binding of recombinant TgSABP1 to 6′SL-PAA: dose-dependent inhibition
[1]; 60 mM compound
  Blocking of binding of recombinant TgSABP1 to 6′SL-PAA: significantly blocked

## CC(=O)N[C@H]1[C@H]([C@H](O)[C@H](O)CO)OC(O)(C(=O)O)C[C@@H]1O (some centres unmarked) [SA, sialic acid]
[1]
  Inhibition of binding of recombinant TgSABP1 to 6′SL-PAA: exhibited the inhibition on the binding of recombinant TgSABP1 to 6′SL-PAA in a concentration-dependent manner

## CC1=NN(c2ccc(C)c(C)c2)C(=O)/C1=N\Nc1cccc(-c2cccc(C(=O)O)c2)c1O [eltrombopag]
[1]; 50 μM compound
  Blocking of binding of recombinant TgSABP1 to 6′SL-PAA: significantly blocked
[2]; 10 μM
  Intracellular parasite replication: without affecting intracellular parasite replication
[2]; 20 μM, vs DMSO control
  Replication of invaded parasites: significantly impaired
[3]
  Anti-parasite activity in vivo: did not show any anti-parasite activity in vivo
[4]; 10 μM, vs DMSO control, read-out: Inhibition rate of host cell invasion
  inhibition at 10 µM: 47.8%
[4]; 20 μM, vs DMSO control, read-out: Inhibition rate of host cell invasion
  inhibition at 20 µM: 57.7%
[4]; calculated, read-out: IC50 for anti-invasion of T. gondii
  IC50: 11.6 µM

Reference: paper PMC12210739, “A sialic acid-binding protein in Toxoplasma gondii contains a conserved globular domain in apicomplexan parasites” (Parasites & Vectors, 2025)
